The record followed here is patent US4880783A, “Use of adenosine, hypoxanthine and ribose-containing solution for improved protection of the heart during surgery” (University of Virginia Alumnia Patents Foundation, priority 1988, dated 1989).

Assay [1] has as its system isolated perfused rat heart. Put plainly: Recovery of left ventricular developed pressure in isolated perfused rat heart after 10 min total ischemia. Also on record: % of Control Developed Pressure, 15' RP / % of Control Developed Pressure, 30' RP / % of Control Developed Pressure, 60' RP: concentration or dose not given beside the values. The following applies: for % of Control Developed Pressure, 15' RP: 15' reperfusion; for % of Control Developed Pressure, 15' RP / % of Control Developed Pressure, 30' RP / % of Control Developed Pressure, 60' RP: 37° C., N ≥ 5; for % of Control Developed Pressure, 30' RP: 30' reperfusion; for % of Control Developed Pressure, 60' RP: 60' reperfusion; for contractile function of the isolated perfused rat heart: in words, after 10 minutes of total ischemia. Here is the method:
This hypothesis was also tested using the aforementioned isolated rat heart model. The effects of adenosine and hypoxanthine on the recovery of cardiac contractile function was assessed by the determination of left ventricular developed pressure during the post-ischemic reperfusion phase with the use of an intra-ventricular saline filled balloon.

The test system of assay [2] is myocardial ATP (isolated perfused rat heart). Put plainly: Myocardial ATP in Langendorff isolated perfused rat heart before, during and after 10 min ischemia. To be noted: 100 μM; for ATP, 10' Ischemia / ATP, 15' RP / ATP, 30' RP / ATP, 60' RP / ATP, Equilibration: 37° C., N ≥ 5; for ATP, 15' RP: 15' reperfusion; for ATP, 30' RP: 30' reperfusion; for ATP, 60' RP: 60' reperfusion; for ATP, Equilibration: pre-ischemic equilibration; for nucleotide pools (ATP) during ischemia and/or post-ischemic reperfusion: in words, isolated rat heart.

SMILES strings stand for the structures.

`O=c1[nH]cnc2nc[nH]c12` [Hypoxanthine, hypoxanthine]: in assay [1], the “% of Control Developed Pressure, 15' RP” value is recorded as 84 ± 5%; the “% of Control Developed Pressure, 30' RP” value stood at 88 ± 2%; the “% of Control Developed Pressure, 60' RP” value was 87 ± 3%; the “contractile function of the isolated perfused rat heart” value is reported as “capable of restoring the contractile function”. Further, in assay [2], the “ATP, 10' Ischemia” value is reported as 1.4 ± .2 μmoles/g wet weight; the “ATP, 15' RP” value is 2.7 ± .2 μmoles/g wet weight; the “ATP, 30' RP” value is reported as 2.7 ± .1 μmoles/g wet weight; the “ATP, 60' RP” value is listed as 2.3 ± .1 μmoles/g wet weight. In addition, in assay [2], the “ATP, Equilibration” value is listed as 3.4 ± .2 μmoles/g wet weight and the “nucleotide pools (ATP) during ischemia and/or post-ischemic reperfusion” value was “able to enhance nucleotide pools (ATP) during ischemia and/or during the post-ischemic reperfusion period”.
Regarding `Nc1ncnc2c1ncn2[C@@H]1O[C@H](CO)[C@@H](O)[C@H]1O` [Adenosine, adenosine], in assay [1], the “% of Control Developed Pressure, 15' RP” value stood at 86 ± 3%; the “% of Control Developed Pressure, 30' RP” value was determined as 96 ± 3%; the “% of Control Developed Pressure, 60' RP” value came out at 95 ± 3%; the “contractile function of the isolated perfused rat heart” value is “capable of restoring the contractile function”. Besides, in assay [2], the “ATP, 10' Ischemia” value worked out at 1.7 ± 0.1 μmoles/g wet weight; the “ATP, 15' RP” value is on record as 2.9 ± .08 μmoles/g wet weight; the “ATP, 30' RP” value was 2.7 ± .08 μmoles/g wet weight; the “ATP, 60' RP” value is listed as 2.7 ± .06 μmoles/g wet weight. In addition, in assay [2], the “ATP, Equilibration” value is reported as 3.9 ± 0.4 μmoles/g wet weight and the “nucleotide pools (ATP) during ischemia and/or post-ischemic reperfusion” value was “able to enhance nucleotide pools (ATP) during ischemia and/or during the post-ischemic reperfusion period”.
